Series [1] deals with T1, steroid sulfatase (Rattus norvegicus, UniProt P15589).
T1 construct: the liver and the uterus were excised from each rat; from tissue; host or cells: rat liver and uterus homogenate (2,000 x g supernatant) after 5 days of dosing
T1 sequence (P15589 20-577): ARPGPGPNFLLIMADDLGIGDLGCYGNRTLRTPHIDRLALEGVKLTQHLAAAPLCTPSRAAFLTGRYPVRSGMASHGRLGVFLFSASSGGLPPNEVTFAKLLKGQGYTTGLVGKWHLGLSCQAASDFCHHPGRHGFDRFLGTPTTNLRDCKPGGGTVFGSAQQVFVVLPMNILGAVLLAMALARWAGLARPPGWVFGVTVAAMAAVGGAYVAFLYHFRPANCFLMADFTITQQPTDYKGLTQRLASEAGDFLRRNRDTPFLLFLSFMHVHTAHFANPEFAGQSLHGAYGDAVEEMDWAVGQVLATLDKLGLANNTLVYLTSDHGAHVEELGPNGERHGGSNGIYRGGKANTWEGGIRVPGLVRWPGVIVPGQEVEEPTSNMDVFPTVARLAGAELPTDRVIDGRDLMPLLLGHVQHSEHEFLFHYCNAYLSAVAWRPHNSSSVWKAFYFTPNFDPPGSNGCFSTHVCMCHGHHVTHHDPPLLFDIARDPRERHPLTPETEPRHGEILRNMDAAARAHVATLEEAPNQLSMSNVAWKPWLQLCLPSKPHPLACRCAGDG
Description: In vivo inhibitory effect on steroid sulfatase (rat liver and uterus homogenates after 5 days of dosing). The following applies: po, once a day for 5 days, female SD rats, 4 hours after final administration. The source says:
(2) Measurement of an In vivo Inhibitory Effect on Steroid Sulfatase
A test compound was suspended in a 0.5% polyoxyethylene (20) sorbitan monooleate solution (Tween 80) and administered, once a day, to a group of 5 female SD strain rats (weighing 168-194 g) for 5 days.
Four hours after the final administration, all rats were sacrificed by ether anesthesia and dissected. Thus, the liver and the uterus were excised from each rat, washed once with cold phosphate-buffered saline (PBS, pH 7.4), and preserved at −70° C. or below. Each of the liver and the uterus was finely minced with scissors, and suspended in PBS containing 250 mM sucrose (5 ml/g tissue). Under cooling with ice, each suspension was homogenized with an Ultra-Turrax homogenizer. The resulting homogenate was centrifuged (at 4° C.) at 2,000×g for 30 minutes to remove nuclei and cell debris, and the protein concentration in this supernatant was measured according to the method of Bradford [Anal. Biochem. 72, 248-254(1976)].
The homogenate in an amount corresponding to a protein concentration of 100-500 μg/ml was mixed with [6,7-^3H]estrone 3-sulfate (with a specific activity of 49 Ci/mmol; from New England Nuclear, Boston, Mass., USA) in an amount corresponding to a substrate concentration of 20 μM. This mixture was diluted with PBS to a total volume of 1 ml, and incubated at 37° C. for 30 minutes. After incubation (1 ml), the steroid sulfatase activity was determined in the same manner as described above for the in vitro measurement (1).

Series [2] has as its target T2, steroid sulfatase (Homo sapiens, UniProt P08842).
T2 sequence (P08842 22-583): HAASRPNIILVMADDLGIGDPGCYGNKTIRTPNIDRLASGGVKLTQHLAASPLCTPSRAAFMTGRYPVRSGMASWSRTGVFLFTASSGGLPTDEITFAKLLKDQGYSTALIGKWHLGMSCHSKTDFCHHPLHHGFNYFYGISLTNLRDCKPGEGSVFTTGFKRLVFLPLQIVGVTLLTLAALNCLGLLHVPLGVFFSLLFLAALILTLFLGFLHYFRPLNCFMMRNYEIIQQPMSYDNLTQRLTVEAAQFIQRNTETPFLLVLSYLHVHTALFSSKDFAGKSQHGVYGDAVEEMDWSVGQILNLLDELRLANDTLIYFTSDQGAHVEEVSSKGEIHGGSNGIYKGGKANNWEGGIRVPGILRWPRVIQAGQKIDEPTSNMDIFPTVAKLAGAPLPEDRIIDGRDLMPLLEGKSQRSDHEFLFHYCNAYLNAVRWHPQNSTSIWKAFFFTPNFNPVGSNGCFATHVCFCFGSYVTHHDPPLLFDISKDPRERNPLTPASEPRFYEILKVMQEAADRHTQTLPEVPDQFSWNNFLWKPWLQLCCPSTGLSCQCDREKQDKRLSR
Description: In vitro inhibitory effect on steroid sulfatase (intact MCF-7 cells, [3H]estrone 3-sulfate hydrolysis). Also noted: Six-well plates (9.4 cm^2/well) were inoculated with intact MCF-7 human breast cancer cells; endogenous in cells; host or cells: MCF-7 human breast cancer cells. Type of series: cell-based. The following applies: MCF7; 3 × 10^−9 M test compound; intact MCF-7 human breast cancer cells; 37° C., 20 hours; read-out: Inhibitory rate (3 × 10^−9 M. %). As for the experimental part:
(1) Measurement of an In vitro Inhibitory Effect on Steroid Sulfatase
Six-well plates (9.4 cm^2/well) were inoculated with intact MCF-7 human breast cancer cells at a density of about 1×10^5 cells/well. Using Dulbecco's modified Eagle medium (DMEM) containing 10 mM HEPES, 5% fetal bovine serum, 0.011% sodium pyruvate and 0.37% sodium bicarbonate, the cells were grown to 80% confluency.
The plates were washed with Earle's balanced salt solution (EBSS from Life Technologies Inc., Grand Island, N.Y., USA). Then, serum-free DMEM (2 ml) containing 4 pmol (4.4×10^5 dpm) of [6,7-^3H]estrone 3-sulfate (with a specific activity of 49 Ci/mmol; from New England Nuclear, Boston, Mass., USA), together with a test compound, was placed on each plate and incubated at 37° C. for 20 hours. After incubation, the plate was cooled, and the medium (1 ml) was pipetted into a separating tube containing [4-^14C]estrone (6×10^3 dpm) (with a specific activity of 52.5 mCi/mmol; from New England Nuclear, Boston, Mass., USA). This mixture, together with toluene (4 ml), was vigorously shaken for 30 seconds. It was shown by experiment that more than 90% of [4-^14C]estrone was removed from the aqueous layer by this treatment. A portion (2 ml) of the organic phase was taken, and the ^3H and ^14C contents thereof were measured by scintillation spectrometry. Then, the amount of estrone 3-sulfate hydrolyzed was calculated from the total 3H count (corrected for the volumes of the medium used and the organic phase, and for the recovery of the [^14C]estrone added) and the specific activity of the substrate.

For series [3] the following is noted: qualitative statement on prior art compounds; cited from earlier work.
In series [4] the target is T2, steroid sulfatase. The following applies: qualitative statement on prior art compounds; cited from earlier work.
Setting [5] is: liver, read-out: Inhibitory rate (0.5 mg/kg, p.o., %) Liver.
[6] abbreviates: uterus, read-out: Inhibitory rate (0.5 mg/kg, p.o., %) Uterus.

Where two headings read alike, the source gives them in different places.

As for `N#Cc1ccc(N(Cc2ccc(OS(N)(=O)=O)cc2)n2cnnc2)cc1` [Example 38, 4-[N-(4-cyano-phenyl)-N-(1,2,4-triazol-4-yl)aminomethyl]phenyl sulfamate], the inhibition at 0.5 mg/kg in series [1] (setting [5]) is 85.3%; in series [1] (setting [6]) it was 79%.
On the same counts, the results for `NS(=O)(=O)Oc1ccc(-c2ccc([N+](=O)[O-])cc2)cc1` [Example 16, 4′-nitrobiphenyl-4-yl sulfamate] are 97% and 100%.
On to `N#Cc1cc([N+](=O)[O-])ccc1-c1ccc(OS(N)(=O)=O)cc1` [Example 25, 2′-cyano-4′-nitrobiphenyl-4-yl sulfamate], for which the inhibition at 0.003 µM in series [2] came to 87%. The values for the inhibition at 0.5 mg/kg in series [1] (setting [5]) and in series [1] (setting [6]) were 99.5% and 100%, respectively.
Turning to `C[C@]12CC[C@@H]3c4ccc(OS(N)(=O)=O)cc4CC[C@H]3[C@@H]1CCC2=O` [EMATE, estrone 3-sulfamate], the estrogenic action result in series [3] is listed as “powerful estrogenic action”. Also, the “inhibitory effect on steroid sulfatase” value in series [4] was “powerful inhibitory effect”.
As to `NS(=O)(=O)Oc1ccc(-c2ccc(OS(N)(=O)=O)cc2)cc1` [Example 21, biphenyl-4,4′-diyl disulfamate], the inhibition at 0.5 mg/kg in series [1] (setting [5]) is 97.2%; in series [1] (setting [6]), 97.6%.
For the compound `NS(=O)(=O)Oc1ccc(-c2ccc([N+](=O)[O-])cc2[N+](=O)[O-])cc1` [Example 23, 2′,4′-dinitrobiphenyl-4-yl sulfamate], in series [2], the inhibition at 0.003 µM came to 67%.
Regarding `Cc1cc(=O)oc2cc(OS(N)(=O)=O)ccc12` [COUMATE, 4-methylcoumarin 7-sulfamate], the estrogenic action result in series [3] is on record as “do not show an estrogenic action”. Further, the “inhibitory effect on steroid sulfatase” value in series [4] is listed as “weak”.
As to `CCCCCCCCCCCCCC(=O)NCCc1ccc(OS(N)(=O)=O)cc1` [DU-14, 4-(2-myristoylaminoethyl)phenyl sulfamate], in series [3], the estrogenic action entry was “do not show an estrogenic action”. Besides, in series [4], the “inhibitory effect on steroid sulfatase” value is listed as “weak”.
For the compound `N#Cc1ccccc1-c1ccc(OS(N)(=O)=O)cc1` [Example 3, 2′-cyanobiphenyl-4-yl sulfamate], the inhibition at 0.003 µM in series [2] came to 76%. Further, the inhibition at 0.5 mg/kg worked out at 95.4% in series [1] (setting [5]) and 93.8% in series [1] (setting [6]).
`N#Cc1ccc(-c2ccc(OS(N)(=O)=O)cc2)c(C#N)c1` [Example 27, 2′,4′-dicyanobiphenyl-4-yl sulfamate]: in series [2], the inhibition at 0.003 µM is 94%.
As for `NS(=O)(=O)Oc1ccc(-c2ccccc2[N+](=O)[O-])cc1` [Example 1, 2′-nitrobiphenyl-4-yl sulfamate], the inhibition at 0.5 mg/kg in series [1] (setting [5]) is 91.2%; in series [1] (setting [6]), 94.9%.

(Values after patent publication US6762205B1, “Phenyl sulfamate derivatives” (Teikoku Hormone Mfg. Co., Ltd., priority 1999, dated 2004).)
